Assay results reported in patent US9606124B2, “Methods of detecting and treating stem-cell containing solid tumors” (The Regents of The University of Michigan, priority 2008, dated 2017).
Entries after “also recorded” stand apart in the source; their conditions may differ.

What was measured:
[1] = test system: cells from primary tumors SUM159, MC1, UM2, UM3; experiment: Re-implantation of cells from treated tumors into secondary mice; assay type: in vivo, NOD/SCID mice
Method: Animal model. […] Cells from these tumors were transplanted orthotopically in the humanized cleared fat-pad of NOD/SCID mice, without cultivation in vitro. […] 50,000 cells from each xenotransplants were injected in the humanized fat pad of NOD/SCID mice and monitored the tumor growth. […] The animals were euthanized when the tumors were approximately 1.5 cm in the largest diameter, to avoid tumor necrosis and in compliance with regulations for use of vertebrate animal in research. A portion of each fat pad injected was fixed in formalin and embedded in paraffin for histological analysis. The rest of the tumor cells were re-implantated into secondary NOD/SCID mice. […]

[2] = test system: ALDH1; experiment: Immunohistochemistry of ALDH1 in xenotransplants; assay type: in vivo, NOD/SCID mice; conditions: compared to untreated tumors
Method: (§1) Immunostaining. For immunofluorescent staining, sorted CXCR1-positive cells were fixed with 95% methanol at −20° C. for 10 minutes. Cells were rehydrated in PBS and incubated with respective antibodies at room temperature for 1 hour. Primary antibodies used were P-FAK (1:50, Cell Signaling Technology), P-AKT (1:300, Cell Signaling Technology), and FOXO3a (1:250, Cell Signaling Technology). Slides were then washed and incubated 30 minutes with PE conjugated secondary antibodies (Jackson labs). The nuclei were counterstained with DAPI/antifade (Invitrogen) and coverslipped. […] Immunohistochemistry for the detection of ALDH1 (1:100, BD biosciences), P-FAK, P-AKT, FOXO3a expression was done on paraffin section (Ginestier et al. Am. J Pathol. 161:1223-1233, herein incorporated by reference in its entirety). Staining was done utilizing the Histostainplus kit (Zymed laboratories). Diaminobenzidine (DAB) or 3-amino-9-ethylcarbazole (AEC) was used as chromogen and sections were counterstained with hematoxylin.

[3] = test system: CD44+/CD24- cell population of MC1, UM2, UM3 xenografts; experiment: CD44+/CD24- cells in treated tumors (flow cytometry); set-up: species or system NOD/SCID mice; conditions: mouse, in vivo
Method: (§2) Animal model. […] Cells from these tumors were transplanted orthotopically in the humanized cleared fat-pad of NOD/SCID mice, without cultivation in vitro. […] 50,000 cells from each xenotransplants were injected in the humanized fat pad of NOD/SCID mice and monitored the tumor growth. […] The animals were euthanized when the tumors were approximately 1.5 cm in the largest diameter, to avoid tumor necrosis and in compliance with regulations for use of vertebrate animal in research. A portion of each fat pad injected was fixed in formalin and embedded in paraffin for histological analysis. The rest of the tumor cells were re-implantated into secondary NOD/SCID mice. Serial dilutions of cells were utilized for the re-implantation with injection of 10,000, 1,000, and 100 cells for each treated tumor.
Flow cytometry analysis. […] CD95/FAS staining were performed utilizing an anti-CD95 labeled APC (1:20, BD biosciences). […] Fresh cells were stained with 1 μg/ml PI (Sigma) for 5 min for viability.

[4] = test system: FAS-ligand mRNA; experiment: Quantitative RT-PCR of FAS-ligand mRNA in SUM159 cells; assay type: cell-based, human; conditions: repertaxin 100 nM, FAS agonist 500 ng/ml, docetaxel 10 nM, trihydrate
Method: RNA extraction and qRT-PCR. After SUM159 cells were treated, total RNA was isolated using RNeasy Mini Kit (QIAGEN) and utilized for real-time quantitative RT-PCR (qRT-PCR) assays in a ABI PRISM® 7900HT sequence detection system.

[5] = test system: ALDEFLUOR-positive cells of SUM159, MC1, UM2, UM3 tumors; experiment: ALDEFLUOR assay on treated tumor xenografts; assay type: in vivo, NOD/SCID mice; conditions: residual tumors after four weeks of treatment; trihydrate
Method: ALDEFLUOR assay. […] In order to eliminate cells of mouse origin from the xenotransplanted tumors, cell population was stained with an anti-H2Kd antibody (BD biosciences, 1/200, 20 min on ice) followed by staining with a secondary antibody labeled with phycoerythrin (PE) (Jackson labs, 1/250, 20 min on ice).
as §2

[6] = test system: SUM159 cell line and human breast cancer xenografts MC1, UM2, UM3; experiment: Tumor growth of breast cancer xenografts in the mammary fat pad; assay type: in vivo, NOD/SCID mice; conditions: repertaxin 15 mg/Kg s.c. twice a day 28 days, docetaxel 10 mg/Kg i.p. once a week, start at tumor size about 4 mm, trihydrate
Method: For each sample, 50,000 cells were injected into the mammary fat pad of NOD-SCID mice which were monitored for tumor size. Injections were started when the tumor size was about 4 mm.
as §2

[7] = test system: FOXO3A; experiment: Immunohistochemistry of FOXO3A in xenotransplants; set-up: species or system NOD/SCID mice; conditions: mouse, in vivo
Method: as §1

[8] = test system: normal mammary epithelial cells; experiment: Mammosphere formation by normal mammary epithelial cells; assay type: cell-based, human; conditions: normal mammary epithelial cells in suspension, human recombinant IL-8
[9] = test system: ALDEFLUOR-positive and -negative cells of HCC1954, MDA-MB-453, SUM159; experiment: Matrigel invasion assay with IL8 as attractant; assay type: cell-based, human; conditions: IL8 100 ng/ml as attractant
Method: Invasion assay. Assays were done in triplicate in transwell chambers with 8 μm pore polycarbonate filter inserts for 12-well plates (Corning, N.Y.). Filters were coated with 30 ul of ice-cold 1:6 basement membrane extract (Matrigel, BD-Bioscience) in DMEM/F12 incubated 1 hour at 37° C. Cells were added to the upper chamber in 200 ul of serum-free medium. For the invasion assay, 5000 cells were seeded on the Matrigel-coated filters and the lower chamber was filled with 600 ul of medium supplemented with 10% human serum (Cambrex) or with 600 ul of serum-free medium supplemented with IL8 (100 ng/mL). After 48 hours incubation, the cells on the underside of the filter were counted using light microscopy. Relative invasion was normalized to the unseparated corresponding cell lines under serum condition.

[10] = test system: HCC1954, SUM159, MDA-MB-453; experiment: Tumorsphere formation of breast cell lines treated with IL8; assay type: cell-based; conditions: human recombinant IL8
Method: Anchorage-independent culture. ALDEFLUOR-positive, -negative and unseparated cells from 184A1, SUM149 and SUM159 were plated as single cells in ultra-low attachment plates (Corning, Acton, Mass.) at low density (5000 viable cells/ml). Cells were grown in serum-free mammary epithelial basal medium (Cambrex Bio Science, Walkerville, Md.) for 3-7 days, as described (18). The capacity of cells to form spheres was quantified after treatment with different doses of IL8 (GenWay Biotech, San Diego, Calif.) added to the medium.

[11] = test system: four breast cell lines cultured in adherent conditions; experiment: ALDEFLUOR-positive population of breast cell lines treated with IL8; assay type: cell-based; conditions: human recombinant IL8
Method: ALDEFLUOR Assay and Separation of the ALDH-positive Population by FACS. ALDH activity was assessed in 33 BCLs representing the main molecular subtypes of human breast cancer. The ALDEFLUOR kit (StemCell technologies, Durham, N.C., USA) was used to isolate the population with high ALDH enzymatic activity (17). Cells obtained from subconfluent cell lines after trypsinization or from freshly dissociated xenografts were suspended in ALDEFLUOR assay buffer containing ALDH substrate (BAAA, 1 μmol/l per 1×10^6 cells) and incubated for 40 minutes at 37° C. In each experiment a sample of cells was stained under identical conditions with […] of diethylaminobenzaldehyde (DEAB), a specific ALDH inhibitor, as negative control. Flow cytometry sorting was conducted using a FACStarPLUS (Becton Dickinson). ALDEFLUOR fluorescence was excited at 488 nm and detected using standard fluorescein isothiocyanate (FITC) 530/30 band pass filter. For xenotransplanted tumors, incubation with an anti-H2Kd antibody (BD biosciences, 1/200, 20 min on ice) followed by a secondary antibody labeled with phycoerythrin (Jackson labs, 1/250, 20 min on ice) was used to eliminate cells of mouse origin. […] For both cell lines, sorted ALDEFLUOR-positive populations contained more than 98% of ALDEFLUOR-positive cells and no ALDEFLUOR-positive cells were detected in the ALDEFLUOR-negative population.

CC(=O)O[C@@]12CO[C@@H]1C[C@H](O)[C@@]1(C)C(=O)[C@H](O)C3=C(C)[C@@H](OC(=O)[C@H](O)[C@@H](NC(=O)OC(C)(C)C)c4ccccc4)C[C@@](O)([C@@H](OC(=O)c4ccccc4)[C@H]21)C3(C)C [Docetaxel, (2R,3S)-N-carboxy-3-phenylisoserine, N-tert-butyl ester, 13-ester with 5b-20-epoxy-12a,4,7b,10b,13a-hexahydroxytax-11-en-9-one 4-acetate 2-benzoate, trihydrate]
Tumors/Injections ([1]; number of cells injected 100): 8/9 | Tumors/Injections ([1]; number of cells injected 250): 2/3 | Tumors/Injections ([1]; number of cells injected 500): 3/4 | Tumors/Injections ([1]; number of cells injected 1,000): 6/6 | Tumors/Injections ([1]; number of cells injected 2,500): 2/2 | Tumors/Injections ([1]; number of cells injected 5,000): 4/4 | Tumors/Injections ([1]; number of cells injected 10,000): 2/2 | secondary tumor formation / regrowth from serial dilutions of treated primary tumors ([1]; secondary NOD/SCID mice, no further treatment, trihydrate): formed secondary tumors at all dilutions | ALDH1-positive cells / ALDH1 expression in treated tumors [2]: unchanged or increased | percent of CD44+/CD24- cells in residual tumors [3]: unchanged or increased percent | increase of FAS-ligand mRNA level compared to non-treated cells ([4]; listed as docetaxel): induced both IL-8 and FAS-ligand mRNA | increase of FAS-ligand mRNA level compared to non-treated cells [4]: induced both FAS-ligand (A) and IL-8 (B) mRNA | ALDEFLUOR-positive cells (cancer stem cells) in treated tumors, decrease compared to the control [5]: unchanged or increased | tumor size / tumor growth compared to the control ([6]; listed as docetaxel): significant inhibition of tumor growth; also recorded: statistically significant reduction of the tumor size | tumor size / tumor growth compared to the control [6]: statistically significant reduction of the tumor size | nuclear FOXO3A in treated tumors [7]: detected

IL8: human recombinant IL8 (GenWay Biotech), chemokine ligand of CXCR1
formation of primary and secondary mammospheres [8]: increased the formation of primary (B) and secondary mammospheres (C) in a dose-dependent manner | formation of primary and secondary mammospheres ([8]; listed as IL-8): increased the formation of primary and secondary mammospheres in a dose-dependent manner | invasive capacity of ALDEFLUOR-negative cells [9]: did not have any effect; also recorded: no effect | invasion of ALDEFLUOR-positive cells through Matrigel ([9]; compared to serum): increased invasion; also recorded: significant increase | formation of primary and secondary tumorspheres [10]: increased the formation of primary and secondary tumorspheres in a dose-dependent manner; also recorded: increased the formation of primary and secondary tumorospheres in a dose-dependent manner | ALDEFLUOR-positive population [11]: increased the ALDEFLUOR-positive population in a dose-dependent manner
